In EP2951180B1, “2,6,7,8 SUBSTITUTED PURINES AS HDM2 INHIBITORS” (Merck Sharp & Dohme Corp., priority 2013, dated 2014):

Target: T1, HDM2 (Homo sapiens, UniProt Q00987)
T1 construct: Thioredoxin (N); made in house; host or cells: E. coli strain BL21(DE3)Rosetta
Test: HDM2 FRET assay (inhibition of binding of FITC labeled p53-pocket peptide to HDM2)
Settings: Table 18; read-out: FRET IC50
In short: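 TR-FRET with 0.5 nM His-tagged recombinant HDM2, 3 nM FITC-labelled p53 peptide and 0.25 nM Tb-anti-His antibody in PBS, 0.01% BSA, 0.01% Tween-20, 0.1% DMSO. IC50 from em520/em495 ratio over 10-point dilutions, 4-parameter logistic fit.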

T1 sequence (Q00987 17-125): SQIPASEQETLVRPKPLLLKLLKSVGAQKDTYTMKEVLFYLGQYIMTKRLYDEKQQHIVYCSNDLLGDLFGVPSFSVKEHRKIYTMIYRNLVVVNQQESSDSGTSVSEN

**Q.** Which IC50 does the source give for `Cc1cccc(-c2nc3nc(C(=O)O)nc(N[C@H](C)C4CCC4)c3n2C[C@H]2CC[C@@H](C(F)(F)F)CC2)c1` [Example 18.29, 6-{[(1R)-1-cyclobutylethyl]amino}-8-(3-methylphenyl)-7-{[cis-4-(trifluoromethyl)cyclohexyl]methyl}-7H-purine-2-carboxylic acid] here?
**A.** Its IC50 is 677 nM.

**Q.** `CC(C)c1ccnc(-c2nc3nc(-c4noc(=O)[nH]4)nc(N[C@H](C)C4CCC4)c3n2C[C@H]2CC[C@H](C(F)(F)F)CC2)c1` [Example 18.30, 3-(6-{[(1R)-1-cyclobutylethyl]amino}-8-[4-(1-methylethyl)pyridin-2-yl]-7-{[trans-4-(trifluoromethyl)cyclohexyl]methyl}-7H-purin-2-yl)-1,2,4-oxadiazol-5(4H)-one] was tested. Which IC50 did it give?
**A.** The IC50 was 13 nM.

**Q.** Which IC50 does the source give for `CC([C@H]1CC[C@H](C)CC1)n1c(N2CCOC3CCCC32)nc2nc(-c3n[nH]c(=O)o3)nc(N[C@H](C)C3CCC3)c21` (stereo partly drawn) [Example 18.44, 5-(6-{ [(1R)-1-cyclobutylethyl]amino}-8-(hexahydrocyclopenta[b] [1,4]oxazin-4(4aH)-yl)-7-[1-(trans-4-methylcyclohexyl)ethyl]-7H-purin-2-yl)-1,3,4-oxadiazol-2(3H)-one] here?
**A.** The IC50 was 5.37 nM.

**Q.** How did the IC50 turn out when `CC([C@H]1CC[C@H](C)CC1)n1c(N2CCC[C@H]2C(F)(F)F)nc2nc(-c3noc(=O)[nH]3)nc(-c3cncc(Cl)c3)c21` (stereo partly drawn) [Example 18.49, 3-{6-(5-chloropyridin-3-yl)-7-[1-(trans-4-methylcyclohexyl)ethyl]-8-[(2S)-2-(trifluoromethyl)pyrrolidin-1-yl]-7H-purin-2-yl}-1,2,4-oxadiazol-5(4H)-one] was run?
**A.** The IC50 was 0.67 nM.

Same assay, conditions: Table 19; read-out: FRET IC50

**Q.** Which IC50 does the source give for `C[C@@H](Nc1nc(-c2noc(=O)[nH]2)nc2nc(Sc3ccccc3)n(C[C@H]3CC[C@H](C)CC3)c12)C1CCC1` [Example 19.1, 3-[6-{[(1R)-1-cyclobutylethyl]amino}-7-[(trans-4-methylcyclohexyl)methyl]-8-(phenylsulfanyl)-7H-purin-2-yl]-1,2,4-oxadiazol-5(4H)-one] here?
**A.** The IC50 was 0.763 nM.

**Q.** For `C[C@@H](Nc1nc(-c2noc(=O)[nH]2)nc2nc([S+]([O-])c3ccccc3)n(C[C@H]3CC[C@H](C)CC3)c12)C1CCC1` (stereo partly drawn) [Example 19.2, 3-[6-{[(1R)-1-cyclobutylethyl]amino}-7-[(trans-4-methylcyclohexyl)methyl]-8-(phenylsulfinyl)-7H-purin-2-yl]-1,2,4-oxadiazol-5(4H)-one], which IC50 is on record?
**A.** Its IC50 is 1.77 nM.

**Q.** For `C[C@@H](Nc1nc(-c2noc(=O)[nH]2)nc2nc(S(=O)(=O)c3ccccc3)n(C[C@H]3CC[C@H](C)CC3)c12)C1CCC1` [Example 19.3, 3-[6-{[(1R)-1-cyclobutylethyl]amino}-7-[(trans-4-methylcyclohexyl)methyl]-8-(phenylsulfonyl)-7H-purin-2-yl]-1,2,4-oxadiazol-5(4H)-one], which IC50 is on record?
**A.** The IC50 was 0.943 nM.

**Q.** Which IC50 does the source give for `C[C@H]1CC[C@H](Cn2c(SC3CCCC3)nc3nc(-c4n[nH]c(=O)o4)nc(-c4cncc(Cl)c4)c32)CC1` [Example 19.4, 5-{6-(5-chloropyridin-3-yl)-8-(cyclopentylsulfanyl)-7-[(trans-4-methylcyclohexyl)methyl]-7H-purin-2-yl}-1,3,4-oxadiazol-2(3H)-one] here?
**A.** Its IC50 is 3.05 nM.

**Q.** For `C[C@H]1CC[C@H](Cn2c(S(=O)(=O)C3CCCC3)nc3nc(-c4n[nH]c(=O)o4)nc(-c4cncc(Cl)c4)c32)CC1` [Example 19.5, 5-{6-(5-chloropyridin-3-yl)-8-(cyclopentylsulfonyl)-7-[(trans-4-methylcyclohexyl)methyl]-7H-purin-2-yl}-1,3,4-oxadiazol-2(3H)-one], which IC50 is on record?
**A.** The IC50 was 5.83 nM.

**Q.** How did the IC50 turn out when `C[C@H]1CC[C@H](Cn2c(Sc3ccccc3)nc3nc(-c4n[nH]c(=O)o4)nc(-c4cncc(Cl)c4)c32)CC1` [Example 19.6, 5-[6-(5-chloropyridin-3-yl)-7-[(trans-4-methylcyclohexyl)methyl]-8-(phenylsulfanyl)-7H-purin-2-yl]-1,3,4-oxadiazol-2(3H)-one] was run?
**A.** Its IC50 is 3.14 nM.

Same assay, conditions: Table 20; read-out: FRET IC50

**Q.** For `C[C@@H](Nc1nc(C(=O)O)nc2nc(C3(c4ccccc4)CCC3)n(C[C@H]3CC[C@H](C)CC3)c12)C1CCC1` [Example 20.1, 6-{[(1R)-1-cyclobutylethyl]amino}-7-[(trans-4-methylcyclohexyl)methyl]-8-(1-phenylcyclobutyl)-7H-purine-2-carboxylic acid], which IC50 is on record?
**A.** Its IC50 is 1.46 nM.

**Q.** How did the IC50 turn out when `C[C@@H](Nc1nc(C(=O)O)nc2nc(C(C)(C)c3ccccc3)n(C[C@H]3CC[C@H](C)CC3)c12)C1CCC1` [Example 20.2, 6-{[(1R)-1-cyclobutylethyl]amino}-7-[(trans-4-methylcyclohexyl)methyl]-8-(1-methyl-1-phenylethyl)-7H-purine-2-carboxylic acid] was run?
**A.** The IC50 was 3.45 nM.

**Q.** Which IC50 does the source give for `C[C@@H](Nc1nc(C(=O)O)nc2nc(C3(c4ccccc4)CC3)n(Cc3ccc(C(F)(F)F)cc3)c12)C1CCC1` [Example 20.3, 6-{[(1R)-1-cyclobutylethyl]amino}-8-(1-phenylcyclopropyl)-7-[4-(trifluoromethyl)benzyl]-7H-purine-2-carboxylic acid] here?
**A.** The IC50 was 8.57 nM.

**Q.** Which IC50 does the source give for `C[C@@H](Nc1nc(C(=O)O)nc2nc(C3(c4ccccc4)CC3)n(C[C@H]3CC[C@H](C)CC3)c12)C1CCC1` [Example 20.4, 6-{[(1R)-1-cyclobutylethyl]amino}-7-[(trans-4-methylcyclohexyl)methyl]-8-(1-phenylcyclopropyl)-7H-purine-2-carboxylic acid] here?
**A.** The IC50 was 2.58 nM.

**Q.** With `C[C@@H](Nc1nc(-c2noc(=O)[nH]2)nc2nc(C3(c4ccccc4)CC3)n(C[C@H]3CC[C@H](C)CC3)c12)C1CCC1` [Example 20.5, 3-[6-{[(1R)-1-cyclobutylethyl]amino}-7-[(trans-4-methylcyclohexyl)methyl]-8-(1-phenylcyclopropyl)-7H-purin-2-yl]-1,2,4-oxadiazol-5(4H)-one] as the compound, how does the IC50 read?
**A.** Its IC50 is 4.98 nM.

**Q.** For `C[C@@H](Nc1nc(C(=O)O)nc2nc(CC(C)(C)C)n(C[C@H]3CC[C@H](C)CC3)c12)C1CCC1` [Example 20.6, 6-{[(1R)-1-cyclobutylethyl]amino}-8-(2,2-dimethylpropyl)-7-[(trans-4-methylcyclohexyl)methyl]-7H-purine-2-carboxylic acid], which IC50 is on record?
**A.** Its IC50 is 13.9 nM.

**Q.** How did the IC50 turn out when `C[C@@H](Nc1nc(-c2noc(=O)[nH]2)nc2nc(CC(C)(C)C)n(C[C@H]3CC[C@H](C)CC3)c12)C1CCC1` [Example 20.7, 3-(6-{[(1R)-1-cyclobutylethyl]amino}-8-(2,2-dimethylpropyl)-7-[(trans-4-methylcyclohexyl)methyl]-7H-purin-2-yl)-1,2,4-oxadiazol-5(4H)-one] was run?
**A.** The IC50 was 20.9 nM.

**Q.** `C[C@@H](Nc1nc(-c2noc(=O)[nH]2)nc2nc(C3(c4ccccc4)CCC3)n(C[C@H]3CC[C@H](C)CC3)c12)C1CCC1` [Example 20.8, 3-[6-{[(1R)-1-cyclobutylethyl]amino}-7-[(trans-4-methylcyclohexyl)methyl]-8-(1-phenylcyclobutyl)-7H-purin-2-yl]-1,2,4-oxadiazol-5(4H)-one] was tested. Which IC50 did it give?
**A.** Its IC50 is 5.96 nM.

**Q.** For `C[C@@H](Nc1nc(-c2n[nH]c(=O)n2C)nc2nc(C3(c4ccccc4)CCC3)n(C[C@H]3CC[C@H](C)CC3)c12)C1CCC1` [Example 20.9, 5-[6-{[(1R)-1-cyclobutylethyl]amino}-7-[(trans-4-methylcyclohexyl)methyl]-8-(1-phenylcyclobutyl)-7H-purin-2-yl]-4-methyl-2,4-dihydro-3H-1,2,4-triazol-3-one], which IC50 is on record?
**A.** Its IC50 is 84.4 nM.

**Q.** For `C[C@@H](Nc1nc(-c2n[nH]c(=O)o2)nc2nc(C3(c4ccccc4)CCC3)n(C[C@H]3CC[C@H](C)CC3)c12)C1CCC1` [Example 20.10, 5-[6-{[(1R)-1-cyclobutylethyl]amino}-7-[(trans-4-methylcyclohexyl)methyl]-8-(1-phenylcyclobutyl)-7H-purin-2-yl]-1,3,4-oxadiazol-2(3H)-one], which IC50 is on record?
**A.** Its IC50 is 28.9 nM.

**Q.** Which IC50 does the source give for `C[C@H]1CC[C@H](Cn2c(C3(c4ccccc4)CCC3)nc3nc(-c4noc(=O)[nH]4)nc(-c4cncc(Cl)c4)c32)CC1` [Example 20.11, 3-[6-(5-chloropyridin-3-yl)-7-[(trans-4-methylcyclohexyl)methyl]-8-(1-phenylcyclobutyl)-7H-purin-2-yl]-1,2,4-oxadiazol-5(4H)-one] here?
**A.** The IC50 was 3.39 nM.

**Q.** `C[C@H]1CC[C@H](Cn2c(C3(c4ccccc4)CCC3)nc3nc(-c4n[nH]c(=O)o4)nc(-c4cncc(Cl)c4)c32)CC1` [Example 20.12, 5-[6-(5-chloropyridin-3-yl)-7-[(trans-4-methylcyclohexyl)methyl]-8-(1-phenylcyclobutyl)-7H-purin-2-yl]-1,3,4-oxadiazol-2(3H)-one] was tested. Which IC50 did it give?
**A.** Its IC50 is 9.59 nM.

**Q.** For `C[C@H]1CC[C@H](Cn2c(C3(c4ccccc4)CCC3)nc3nc(-c4n[nH]c(=O)o4)nc(-c4cc(Cl)c[n+]([O-])c4)c32)CC1` [Example 20.13, 5-[6-(5-chloro-1-oxidopyridin-3-yl)-7-[(trans-4-methylcyclohexyl)methyl]-8-(1-phenylcyclobutyl)-7H-purin-2-yl]-1,3,4-oxadiazol-2(3H)-one], which IC50 is on record?
**A.** The IC50 was 22.8 nM.

**Q.** `COc1ncc(Cl)cc1-c1nc(-c2noc(=O)[nH]2)nc2nc(C3(c4ccccc4)CCC3)n(C[C@H]3CC[C@H](C)CC3)c12` [Example 20.14, 3-[6-(5-chloro-2-methoxypyridin-3-yl)-7-[(trans-4-methylcyclohexyl)methyl]-8-(1-phenylcyclobutyl)-7H-purin-2-yl]-1,2,4-oxadiazol-5(4H)-one] was tested. Which IC50 did it give?
**A.** The IC50 was 6.11 nM.

Same assay, conditions: Table 21; read-out: FRET IC50

**Q.** Which IC50 does the source give for `C[C@@H](Nc1nc(C(=O)O)nc2nc(C3=C(c4ccccc4)CCCC3)n(Cc3ccc(C(F)(F)F)cc3)c12)C1CCC1` [Example 21.3, 6-{[(1R)-1-cyclobutylethyl]amino}-8-(2-phenylcyclohex-1-en-1-yl)-7-[4-(trifluoromethyl)benzyl]-7H-purine-2-carboxylic acid] here?
**A.** Its IC50 is 5.82 nM.

**Q.** `C[C@@H](Nc1nc(C(=O)O)nc2nc(C3=C(c4ccccc4)CCC3)n(Cc3ccc(C(F)(F)F)cc3)c12)C1CCC1` [Example 21.4, 6-{[(1R)-1-cyclobutylethyl]amino}-8-(2-phenylcyclopent-1-en-1-yl)-7-[4-(trifluoromethyl)benzyl]-7H-purine-2-carboxylic acid] was tested. Which IC50 did it give?
**A.** Its IC50 is 6.99 nM.
